This is an account of results in patent US7118759B2 (priority 2001, dated 2006).

Molecules are shown by their SMILES. Like-named read-outs stand apart in the source and are kept apart here.

Format in all cases: cell-based, Staphylococcus aureus
One assay concerns S. aureus (MN8). The following applies: for Reduction of Toxin (%): vs methanol control.
A further assay concerns S. aureus FRI-1187.
A further assay deals with S. aureus FRI-1169.

Turning to `Oc1c(Cl)cc(Cl)c(Cl)c1Cc1c(O)c(Cl)cc(Cl)c1Cl` [Hexachlorophene, hexachlorophene], in the assay on S. aureus (MN8), the “TSST-1 produced when compared to the control” value is given as “significantly less TSST-1”. The “ELISA: TSST-1 ng/OD unit” value with S. aureus (MN8) (2 μg/mL test compound, 24 hours) is given as 330 ng/OD unit. For the same compound, in the assay with S. aureus (MN8) (2 μg/mL test compound), the “Reduction of Toxin (%)” value is given as 68%.
On to `Oc1cc(Cl)ccc1Oc1ccc(Cl)cc1Cl` [Triclosan, triclosan], for which the “TSST-1 produced when compared to the control” value is recorded as “significantly less TSST-1” in the assay with S. aureus (MN8), “less TSST-1” in the assay with S. aureus FRI-1187 and “less TSST-1” with S. aureus FRI-1169. The “Reduction of Toxin (%)” value in the assay on S. aureus (MN8) (0.01 μg/mL test compound) worked out at 88%. In addition, the entries for the “ELISA: TSST-1 ng/OD unit” value in the assay with S. aureus FRI-1187 (0.5 ug/mL triclosan) and in the assay on S. aureus FRI-1169 (0.5 μg/mL triclosan) were 95 ng/OD unit and 40 ng/OD unit, respectively.
